Source: US20180284095A1, “BIOMARKERS ASSOCIATED WITH LSD1 INHIBITORS AND USES THEREOF” (Oryzon Genomics, S.A., priority 2015, published 2018)

Experiments:
[1] = molecular target: T1, Human recombinant monoamine oxidase MAO-B (Homo sapiens, UniProt P27338); test: MAO-B fluorescence-based kynuramine assay; assay type: biochemical
T1 construct: purchased Sigma Aldrich
T1 sequence (P27338 1-520): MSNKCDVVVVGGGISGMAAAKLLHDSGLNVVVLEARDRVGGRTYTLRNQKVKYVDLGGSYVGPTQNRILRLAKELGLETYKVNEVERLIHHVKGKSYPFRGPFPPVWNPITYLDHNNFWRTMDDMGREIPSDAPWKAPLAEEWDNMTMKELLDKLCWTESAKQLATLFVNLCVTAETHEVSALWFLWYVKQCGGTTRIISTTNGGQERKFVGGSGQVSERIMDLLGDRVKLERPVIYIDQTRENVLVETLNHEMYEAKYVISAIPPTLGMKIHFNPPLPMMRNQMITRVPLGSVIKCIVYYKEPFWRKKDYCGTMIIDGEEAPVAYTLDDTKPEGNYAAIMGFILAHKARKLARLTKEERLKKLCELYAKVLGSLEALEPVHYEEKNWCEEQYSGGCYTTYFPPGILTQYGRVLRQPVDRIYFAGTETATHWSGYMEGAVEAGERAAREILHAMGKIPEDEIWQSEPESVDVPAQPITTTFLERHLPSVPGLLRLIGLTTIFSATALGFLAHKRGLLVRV
Description: MAOs catalyze the oxidative deamination of primary, secondary and tertiary amines. In order to monitor MAO enzymatic activities and/or their inhibition rate by inhibitor(s) of interest, a fluorescence-based (inhibitor)-screening assay was set up. 3-(2-Aminophenyl)-3-oxopropanamine (kynuramine dihydrobromide, Sigma Aldrich), a non fluorescent compound was chosen as a substrate. Kynuramine is a non-specific substrate for both MAO-A and MAO-B activities. While undergoing oxidative deamination by MAO activities, kynuramine is converted into 4-hydroxyquinoline (4-HQ), a resulting fluorescent product.
The monoamine oxidase activity was estimated by measuring the conversion of kynuramine into 4-hydroxyquinoline. Assays were conducted in 96-well black plates with clear bottom (Corning) in a final volume of 100 μL. […]
After leaving the enzyme(s) interacting with the inhibitor, KM of kynuramine was added to each reaction for MAO-B and MAO-A assay respectively, and the reaction was left for 1 hour at 37° C. in the dark. […] The conversion of kynuramine to 4-hydroxyquinoline, was monitored by fluorescence (excitation at 320 nm, emission at 360 nm) using a microplate reader (Infinite 200, Tecan). Arbitrary units were used to measure levels of fluorescence produced in the absence and/or in the presence of inhibitor.
The IC50 values of each inhibitor were calculated with GraphPad Prism Software.

S100A9 = test: Illumina RNA sequencing, hippocampus of SAMP8 mice (Example 4); assay type: in vivo, mouse
Protocol: Illumina dye sequencing begins with the attachment of cDNA molecules to primers on a slide, followed by amplification of that DNA to produce local colonies. The four types (adenine, cytosine, guanine, and thymine) of reversible terminate bases are added, each fluorescently labeled with a different color and attached with a blocking group. The four bases then compete for binding sites on the template cDNA to be sequenced and non-incorporated molecules are washed away. After each synthesis, a laser is used to excite the dyes and a photograph of the incorporated base is taken. A chemical deblocking step is then used in the removal of the 3′ terminal blocking group and the dye in a single step. The process is repeated until the full cDNA molecule is sequenced.
Illumina RNA-Seq technology records the numerical frequency of sequences in a library population. 50 bp single reads with multiples of 30M single reads are guaranteed using Illumina sequencing technology. The RNA-Seq reads are aligned to the reference genome or reference transcriptome using Bowtie generating genome/transcriptome alignments. TopHat identifies the potential exon-exon splice junctions of the initial alignment. Then Cufflinks identifies and quantifies the transcripts from the preprocessed RNA-Seq alignment assembly. After this, Cuffmerge merges the identified transcript pieces to full length transcripts and annotates the transcripts based on the given annotations. Finally, merged transcripts from two or more samples/conditions are compared using Cuffdiff to determine the differential expression levels at transcript and gene level including a measure of significance between samples/conditions.
Differential gene expression. Operating on the RNA-Seq alignments and Cuffinks processing, Cuffdiff tracks the mapped reads and determines the fragment per kilo base per million mapped reads (FPKM) for each transcript in all the samples. Primary transcripts and gene FPKMs are then computed by adding up the FPKMs of each primary transcript group or gene group. […]

C57BL/6 mice = test: Experimental Autoimmune Encephalomyelitis (EAE) model, MOG35-55; assay type: in vivo, mouse
Protocol: In particular, the murine EAE model as described herein, using MOG35-55 and C57BL/6 mice strain, is considered a validated preclinical model of the chronic progressive form of MS.
To induce chronic EAE by active immunization, C57BL/6 mice were immunized s.c. with 100 μg of myelin oligodendrocyte glycoprotein MOG35-55 emulsified in complete Freund's adjuvant (CFA) containing 4 mg/ml Mycobacterium tuberculosis H37 RA. Mice also received i.p. injections of 200 ng of pertussis toxin on days 0 and 2.
Mice were scored daily for signs of EAE according to the following clinical scoring system: 0, no clinical signs; 0.5, partial loss of tail tonicity; 1, complete loss of tail tonicity; 2, flaccid tail and abnormal gait; 3, hind leg paralysis; 4, hind leg paralysis with hind body paresis; 5, hind and fore leg paralysis; and 6, death.

| IC50 [1] [µM] | Compound | Female FPKM S100A9 (S100A9; hippocampus pool, SAMP8 females, 0.96 mg/kg/day, 4 months) [FPKM] | Male FPKM S100A9 (S100A9; hippocampus pool, SAMP8 males, 0.32 mg/kg/day, 4 months) [FPKM] | S100A9 expression (RNA-seq) (S100A9; hippocampus, SAMP8, vs vehicle-treated animals of the same sex) | development of EAE, disease incidence and severity measured by daily clinical score (C57BL/6 mice; 1 or 3 mg/kg oral once a day, days 12-16 and 19-23 postimmunization) | mice almost completely recovered (C57BL/6 mice; 40 days after disease onset) [%] | duration of protective effect (C57BL/6 mice; after cessation of the treatment) | mice displaying mild symptoms (C57BL/6 mice; group treated with 1 or 3 mg/kg oral) |
| --- | --- | --- | --- | --- | --- | --- | --- | --- |
| 0.07 | NC(=O)CN[C@H]1C[C@@H]1c1ccc(OCc2ccccc2)cc1 (racemic) [Compound 3, 2-(((trans)-2-(4-(benzyloxy)phenyl)cyclopropyl)amino)acetamide] |  |  |  |  |  |  |  |
| 5.1 | N[C@H]1CCN(CCN[C@H]2C[C@@H]2c2ccc(-c3cccc(C(F)(F)F)c3)cc2)C1 (racemic) [Compound 5, (S)-1-(2-(((trans)-2-(3′-(trifluoromethyl)-[1,1′-biphenyl]-4-yl)cyclopropyl)amino)ethyl)pyrrolidin-3-amine] |  |  |  |  |  |  |  |
|  | (−) 5-((((trans)-2-(4-(benzyloxy)phenyl)cyclopropyl)amino)methyl)-1,3,4-oxadiazol-2-amine [Compound 1] | 0.61 | 1.03 | down-regulated S100A9 expression | greatly inhibited the development of EAE | 30 | maintained for a long-period of time after cessation of the treatment | 40-70% |
